Experiment [1] deals with T1, PRMT5 (Homo sapiens, UniProt O14744).
T1 construct: purchased Viva (custom protein)
The experiment can be described thus: PRMT5 biochemical IC50 assay with SAM as cofactor. Particulars: PRMT5, SAM as cofactor; read-out: SAM IC50.

In experiment [2] the target is T1, PRMT5. The experiment is described as follows: PRMT5 biochemical IC50 assay with no cofactor. Particulars: PRMT5, no cofactor. The source says:
Table 1 indicates IC50 values (μM) against PRMT5 for exemplary compounds in the presence of SAM as cofactor, with no cofactor, and with MTA as cofactor, respectively (columns 4-6). […] Ki values can be calculated from the IC50 values as described in the Examples section. As detailed in the Examples section, for the assay performed in the presence of SAM, IC50=Ki×1.5 (Ki=IC50/1.5).

In experiment [3] the target is T1, PRMT5. The experiment can be described thus: PRMT5 biochemical IC50 assay with MTA as cofactor. Conditions: PRMT5, MTA as cofactor; read-out: MTA IC50.
Experiment [4] relates to HAP1 MTAP-intact cell line. The experiment is described as follows: SDMA in-cell western assay, HAP1 MTAP-intact. It is filed as cell-based. Particulars: Homo sapiens, HAP1, SDMA in-cell western, HAP1 MTAP-intact; read-out: MTAP HAP1 intact IC50. The essentials: (§1)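 IC50 values come from SDMA signal quantified by in-cell western in two HAP1 lines, one with native MTAP levels and one lacking MTAP.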

Experiment [5] relates to HAP1 MTAP-deleted cell line. The experiment is described as follows: SDMA in-cell western assay, HAP1 MTAP-deleted. Format: cell-based. Particulars: for IC50: Homo sapiens, HAP1, SDMA in-cell western, HAP1 MTAP-deleted; for MTAP intact/deleted ratio: SDMA in-cell western. The essentials:
as §1

Experiment [6] deals with HAP1 MTAP-deleted cell line. The experiment can be described thus: Viability assay, MTAP-deleted cell line. Format: cell-based. Particulars: Homo sapiens, read-out: HAP1 MTAP deleted viability. The source says:
Table 1 additionally indicates IC50 values in a viability assay for the MTAP-deleted cell line (column 10), indicating the effect of treatment with compound on cell survival.

Setting [7] is: read-out: HAP1 MTAP deleted IC50.
[8] abbreviates: IC50 ratio HAP1 MTAP-intact vs HAP1 MTAP-deleted.
Where [9] appears, read: HAP1, viability assay, MTAP-deleted cell line.
[10] abbreviates: read-out: No Cofactor/ rel IC50.
[11] abbreviates: read-out: HAP 1 MTAP deleted IC50.
Setting [12] is: IC50 ratio HAP1 MTAP-intact / HAP1 MTAP-deleted.
[13] abbreviates: HAP1, viability, HAP1 MTAP-deleted cell line.

Structures are written as SMILES.

T1 sequence (O14744 whole entry): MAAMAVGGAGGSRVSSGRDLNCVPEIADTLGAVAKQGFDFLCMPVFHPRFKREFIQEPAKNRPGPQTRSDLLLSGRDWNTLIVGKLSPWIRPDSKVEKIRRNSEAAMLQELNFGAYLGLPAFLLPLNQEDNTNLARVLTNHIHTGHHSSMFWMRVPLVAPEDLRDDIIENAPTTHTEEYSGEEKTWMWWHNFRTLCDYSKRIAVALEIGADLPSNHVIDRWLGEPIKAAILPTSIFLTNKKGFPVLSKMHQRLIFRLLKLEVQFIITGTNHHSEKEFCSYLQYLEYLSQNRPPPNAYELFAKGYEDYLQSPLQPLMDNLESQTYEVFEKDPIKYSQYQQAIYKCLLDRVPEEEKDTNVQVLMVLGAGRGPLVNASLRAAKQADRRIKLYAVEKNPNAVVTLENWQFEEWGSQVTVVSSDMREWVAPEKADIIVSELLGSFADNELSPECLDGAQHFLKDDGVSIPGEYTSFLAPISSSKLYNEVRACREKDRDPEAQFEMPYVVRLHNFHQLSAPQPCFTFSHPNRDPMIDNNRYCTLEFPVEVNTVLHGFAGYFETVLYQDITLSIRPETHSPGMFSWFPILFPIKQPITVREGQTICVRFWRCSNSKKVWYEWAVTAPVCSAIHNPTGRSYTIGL
T1 sequence (Q9BQA1 whole entry partner): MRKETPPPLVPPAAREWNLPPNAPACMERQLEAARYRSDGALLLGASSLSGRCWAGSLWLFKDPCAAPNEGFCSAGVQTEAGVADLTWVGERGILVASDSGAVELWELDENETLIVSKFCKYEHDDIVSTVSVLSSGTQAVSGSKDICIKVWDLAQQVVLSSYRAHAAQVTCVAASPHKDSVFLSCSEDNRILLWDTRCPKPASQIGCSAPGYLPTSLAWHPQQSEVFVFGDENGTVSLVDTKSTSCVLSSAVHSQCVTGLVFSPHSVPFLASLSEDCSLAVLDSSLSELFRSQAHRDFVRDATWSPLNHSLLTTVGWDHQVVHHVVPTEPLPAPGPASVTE

`CCc1cc(NC(=O)C(=O)N2C[C@@H](C)CC[C@@H]2c2ccc(N3CCC(CN(C)CC)CC3)cc2)cnc1N` [Compound 1232, N-(6-Amino-5-ethylpyridin-3-yl)-2-[(2R,5S)-2-[4-(4-{[ethyl(methyl)amino]methyl}piperidin-1-yl)phenyl]-5-methylpiperidin-1-yl]-2-oxoacetamide]: the IC50 in experiment [1] was 50 to 500 nM; in experiment [2] (read-out: No Cofactor/rel IC50) it was under 50 nM; in experiment [3], under 50 nM; in experiment [4], 100 to 1000 nM; in experiment [5] (setting [7]), under 100 nM; in experiment [6] (setting [9]), under 1000 nM. Further, the MTAP intact/deleted ratio result in experiment [5] (setting [8]) was “A (an IC50 ratio greater than or equal to 10 fold)”.

Consider `COc1ncc(NC(=O)C(=O)N2C[C@@H](C)CC[C@@H]2c2ccc3sc(C4CC5(C4)CN(C)C5)nc3c2)cc1C(N)=O` [Compound 1236, 2-methoxy-5-(2-((2R,5S)-5-methyl-2-(2-(2-methyl-2-azaspiro[3.3]heptan-6-yl)benzo[d]thiazol-5-yl)piperidin-1-yl)-2-oxoacetamido)nicotinamide], for which the IC50 is under 50 nM in experiment [1]; under 50 nM in experiment [2] (read-out: No Cofactor/rel IC50); under 50 nM in experiment [3]; under 100 nM in experiment [4]; under 100 nM in experiment [5] (setting [7]); under 1000 nM in experiment [6] (setting [9]). Further, the MTAP intact/deleted ratio result in experiment [5] (setting [8]) is on record as “A (an IC50 ratio greater than or equal to 10 fold)”.

In the case of `CCc1cc(NC(=O)C(=O)N2C[C@@H](C)CC[C@@H]2c2ccc3sc(C(C)(C)N(C)C)nc3c2)cnc1N` [Compound 1237, N-(6-amino-5-ethylpyridin-3-yl)-2-((2R,5S)-2-(2-(2-(dimethylamino)propan-2-yl)benzo[d]thiazol-5-yl)-5-methylpiperidin-1-yl)-2-oxoacetamide], the IC50 in experiment [1] is 50 to 500 nM; in experiment [2] (read-out: No Cofactor/rel IC50), under 50 nM; in experiment [3], under 50 nM; in experiment [4] it was under 100 nM; in experiment [5] (setting [7]), under 100 nM; in experiment [6] (setting [9]), under 1000 nM. Also, the MTAP intact/deleted ratio result in experiment [5] (setting [8]) is listed as “A (an IC50 ratio greater than or equal to 10 fold)”.

`CCc1cc(NC(=O)C(=O)N2C[C@@H](C)CC[C@@H]2c2ccc3sc(-c4ccccn4)nc3c2)cnc1N` [Compound 1238, N-(6-amino-5-ethylpyridin-3-yl)-2-((2R,5S)-5-methyl-2-(2-(pyridin-2-yl)benzo[d]thiazol-5-yl)piperidin-1-yl)-2-oxoacetamide]: the IC50 in experiment [1] is 50 to 500 nM; in experiment [2] (read-out: No Cofactor/rel IC50) it was 50 to 500 nM; in experiment [3], under 50 nM; in experiment [4] it was 100 to 1000 nM; in experiment [5] (setting [7]), under 100 nM; in experiment [6] (setting [9]), under 1000 nM. For the same molecule, the MTAP intact/deleted ratio entry in experiment [5] (setting [8]) is reported as “A (an IC50 ratio greater than or equal to 10 fold)”.

Regarding `CCc1cc(NC(=O)C(=O)N2C[C@@H](C)CC[C@@H]2c2ccc3sc(C4CCNCC4)nc3c2)cnc1N` [Compound 1240, N-(6-amino-5-ethyl-3-pyridyl)-2-[(2R,5S)-5-methyl-2-[2-(4-piperidyl)-1,3-benzothiazol-5-yl]-1-piperidyl]-2-oxo-acetamide], the IC50 in experiment [1] is under 50 nM; in experiment [2] (setting [10]), under 50 nM; in experiment [3], under 50 nM; in experiment [4], under 100 nM; in experiment [5] (setting [11]), under 100 nM; in experiment [6] (setting [13]) it was under 1000 nM. In addition, the “MTAP intact/deleted ratio” value in experiment [5] (setting [12]) is “B (an IC50 ratio greater than or equal to 3 fold but lower than 10 fold)”.

Take `CCc1cc(NC(=O)C(=O)N2C[C@@H](C)CC[C@@H]2c2ccc3sc(C4CCOC4)nc3c2)cnc1N` (stereo partly drawn) [Compound 1242, N-(6-amino-5-ethylpyridin-3-yl)-2-((2R,5S)-5-methyl-2-(2-(tetrahydrofuran-3-yl)benzo[d]thiazol-5-yl)piperidin-1-yl)-2-oxoacetamide]: the IC50 in experiment [1] was 50 to 500 nM; in experiment [2] (setting [10]), under 50 nM; in experiment [3], under 50 nM; in experiment [4] it was 100 to 1000 nM; in experiment [5] (setting [11]), under 100 nM; in experiment [6] (setting [13]), under 1000 nM. For the same molecule, the “MTAP intact/deleted ratio” value in experiment [5] (setting [12]) is on record as “A (an IC50 ratio greater than or equal to 10 fold)”.

On to `CCc1cc(NC(=O)C(=O)N2C[C@@H](C)CC[C@@H]2c2ccc3sc(N4CCN(C)CC4)nc3c2)cnc1N` [Compound 1244, N-(6-amino-5-ethylpyridin-3-yl)-2-((2R,5S)-5-methyl-2-(2-(4-methylpiperazin-1-yl)benzo[d]thiazol-5-yl)piperidin-1-yl)-2-oxoacetamide], for which the IC50 in experiment [1] was 50 to 500 nM; in experiment [2] (setting [10]) it was under 50 nM; in experiment [3], under 50 nM; in experiment [4] it was under 100 nM; in experiment [5] (setting [11]) it was under 100 nM; in experiment [6] (setting [13]), under 1000 nM. The “MTAP intact/deleted ratio” value in experiment [5] (setting [12]) is “A (an IC50 ratio greater than or equal to 10 fold)”.

Consider `CCc1cc(NC(=O)C(=O)N2C[C@@H](C)CC[C@@H]2c2ccc3sc([C@H]4COCCN4C)nc3c2)cnc1N` [Compound 1245, N-(6-amino-5-ethylpyridin-3-yl)-2-((2R,5S)-5-methyl-2-(2-(4-methylmorpholin-3-yl)benzo[d]thiazol-5-yl)piperidin-1-yl)-2-oxoacetamide], for which the IC50 in experiment [1] was 50 to 500 nM; in experiment [2] (setting [10]), under 50 nM; in experiment [3], under 50 nM; in experiment [4], 100 to 1000 nM; in experiment [5] (setting [11]), under 100 nM; in experiment [6] (setting [13]), under 1000 nM. For the same molecule, in experiment [5] (setting [12]), the “MTAP intact/deleted ratio” value is given as “A (an IC50 ratio greater than or equal to 10 fold)”.

Turning to `CCc1cc(NC(=O)C(=O)N2C[C@@H](C)CC[C@@H]2c2cc(Cl)cc(OCCN(C)C)c2)cnc1N` [Compound 1247, N-(6-amino-5-ethylpyridin-3-yl)-2-((2R,5S)-2-(3-chloro-5-(2-(dimethylamino)ethoxy)phenyl)-5-methylpiperidin-1-yl)-2-oxoacetamide], the IC50 in experiment [1] was under 50 nM; in experiment [2] (setting [10]) it was under 50 nM; in experiment [3], under 50 nM; in experiment [4] it was 100 to 1000 nM; in experiment [5] (setting [11]) it was under 100 nM; in experiment [6] (setting [13]), under 1000 nM. For the same molecule, the “MTAP intact/deleted ratio” value in experiment [5] (setting [12]) is “A (an IC50 ratio greater than or equal to 10 fold)”.

For the molecule `CCc1cc(NC(=O)C(=O)N2C[C@@H](C)CC[C@@H]2c2ccc3sc(CCN4CCOCC4)nc3c2)cnc1N` [Compound 1248, N-(6-amino-5-ethylpyridin-3-yl)-2-((2R,5S)-5-methyl-2-(2-(2-morpholinoethyl)benzo[d]thiazol-5-yl)piperidin-1-yl)-2-oxoacetamide], the IC50 in experiment [1] was under 50 nM; in experiment [2] (setting [10]), under 50 nM; in experiment [3], under 50 nM; in experiment [4] it was 100 to 1000 nM; in experiment [5] (setting [11]) it was under 100 nM; in experiment [6] (setting [13]), under 1000 nM. For the same molecule, the “MTAP intact/deleted ratio” value in experiment [5] (setting [12]) is “A (an IC50 ratio greater than or equal to 10 fold)”.

With `CCc1cc(NC(=O)C(=O)N2C[C@@H](C)CC[C@@H]2c2ccc3sc(C4CCN(CC)CC4)nc3c2)cnc1N` [Compound 1252, N-(6-amino-5-ethylpyridin-3-yl)-2-((2R,53)-2-(2-(1-ethylpiperidin-4-yl)benzo[d]thiazol-5-yl)-5-methylpiperidin-1-yl)-2-oxoacetamide], the IC50 in experiment [1] is 50 to 500 nM; in experiment [2] (setting [10]), under 50 nM; in experiment [3], under 50 nM; in experiment [4], under 100 nM; in experiment [5] (setting [11]), under 100 nM; in experiment [6] (setting [13]), under 1000 nM. For the same molecule, the “MTAP intact/deleted ratio” value in experiment [5] (setting [12]) is reported as “A (an IC50 ratio greater than or equal to 10 fold)”.
